One molecule from patent publication US6747052B2, “Substituted indole-2-carboxylic acid benzylidene-hydrazides and analogs as activators of caspases and inducers of apoptosis and the use thereof” (Cytovia, Inc., priority 2000, dated 2004) can be followed below.

Experiment [1] concerns T-47D. The experiment can be described thus: Caspase cascade activation (N-(Ac-DEVD)-N'-ethoxycarbonyl-R110 fluorogenic substrate) in T-47D cells. The experiment is classed as cell-based, Human. Particulars: 24 h incubation with compound. Here is the method: (§1) Human breast cancer cell lines T-47D and ZR-75-1 were grown according to media component mixtures designated by American Type Culture Collection +10% FCS (Invitrogen Corporation, Life Technologies division), in a 5% CO2-95% humidity incubator at 37° C. T-47D and ZR-75-1 cells were maintained at a cell density between 30 and 80% confluency at a cell density of 0.1 to 0.6×10^6 cells/ml. Cells were harvested at 600×g and resuspended at 0.65×10^6 cells/ml into appropriate media +10% FCS. An aliquot of 45 μl of cells was added to a well of a 96-well microtiter plate containing 5 μl of a 10% DMSO in RPMI-1640 media solution containing 0.16 to 100 μM of 5-chloro-3-methyl-indole-2-carboxylic acid (4-nitrobenzylidene)-hydrazide (Compound A) or other test compound (0.016 to 10 μM final). An aliquot of 45 μl of cells was added to a well of a 96-well microtiter plate containing 5 μl of a 10% DMSO in RPMI-1640 media solution without test compound as the control sample. The samples were mixed by agitation and then incubated at 37° C. for 24 h in a 5% CO2-95% humidity incubator. After incubation, the samples were removed from the incubator and 50 μl of a solution containing 20 μM of N-(Ac-DEVD)-N′-ethoxycarbonyl-R110 fluorogenic substrate (Cytovia, Inc.; WO99/18856), 20% sucrose (Sigma), 20 mM DTT (Sigma), 200 mM NaCl (Sigma), 40 mM Na PIPES buffer pH 7.2 (Sigma), and 500 μg/ml lysolecithin (Calbiochem) was added. The samples were mixed by agitation and incubated at room temperature. Using a fluorescent plate reader (Model 1420 Wallac Instruments), an initial reading (T=0) was made approximately 1-2 min after addition of the substrate solution, employing excitation at 485 nm and emission at 530 nm, to determine the background fluorescence of the control sample. After the 3 h incubation, the samples were read for fluorescence as above (T=3 h).
(§2) The Relative Fluorescence Unit values (RFU) were used to calculate the sample readings as follows: RFU(T=3h)−Control RFU(T=0)=Net RFU(T=3h)
(§3) The activity of caspase cascade activation was determined by the ratio of the net RFU value for 5-chloro-3-methyl-indole-2-carboxylic acid (4-nitrobenzylidene)-hydrazide (Compound A) or other test compound to that of control samples. The EC50 (nM) was determined by a sigmoidal dose-response calculation (Prism 2.0, GraphPad Software Inc.).

In experiment [2] the test system is ZR-75-1. The experiment can be described thus: Caspase cascade activation (N-(Ac-DEVD)-N'-ethoxycarbonyl-R110 fluorogenic substrate) in ZR-75-1 cells. The format is cell-based, Human. Particulars: ZR-75-1, 24 h incubation with compound. The procedure: as §1, §2, §3
Experiment [3] relates to T-47D. Briefly: Inhibition of cell proliferation (GI50, CellTiter 96 AQueous One) in T-47D cells. The format is cell-based. Conditions: Homo sapiens, T47D, 48 h, read-out: GI50 (dose for 50% inhibition of cell proliferation). Here is the method: T-47D and ZR-75-1 cells were grown and harvested as in Example 1. An aliquot of 90 μl of cells (2.2×10^4 cells/ml) was added to a well of a 96-well microtiter plate containing 10 μl of a 10% DMSO in RPMI-1640 media solution containing 1 nM to 100 μM of 5-chloro-3-methyl-indole-2-carboxylic acid (4-nitrobenzylidene)-hydrazide (Compound A) or 5-chloro-3-phenyl-indole-2-carboxylic acid (4-nitrobenzylidene)-hydrazide (Compound B) (0.1 nM to 10 μM final). An aliquot of 90 μl of cells was added to a well of a 96-well microtiter plate containing 10 μl of a 10% DMSO in RPMI-1640 media solution without compound as the control sample for maximal cell proliferation (AMax). The samples were mixed by agitation and then incubated at 37° C. for 48 h in a 5% CO2-95% humidity incubator. […] Using an absorbance plate reader (Model 1420 Wallac Instruments), an initial reading (T=0) was made approximately 1-2 min after addition of the solution, employing absorbance at 490 nm. This determines the possible background absorbance of the test compounds. No absorbance for 5-chloro-3-methyl-indole-2-carboxylic acid (4-nitrobenzylidene)-hydrazide or 5-chloro-3-phenyl-indole-2-carboxylic acid (4-nitrobenzylidene)-hydrazide was found at 490 nm. After the 2-4 h incubation, the samples were read for absorbance as above (ATest). […]

In experiment [4] the test system is Jurkat cells. The experiment can be described thus: Mitotic arrest in Jurkat cells (mitotic figures, Syto 16). The experiment is classed as cell-based. Particulars: Homo sapiens, 6 h. Here is the method:
Jurkat cells were incubated with a range of concentrations of 5-chloro-3-methyl-indole-2-carboxylic acid (4-nitrobenzylidene)-hydrazide (0.02 μM to 5 μM) for 6 h under normal growth conditions; control cultures were treated with DMSO vehicle. The cells were then treated for 20 min. with 800 nM Syto 16 (Molecular Probes, Eugene, Oreg.). Cytospin preparations were then prepared and the samples were viewed by fluorescent microscopy using a fluorescein filter set. For each concentration of test compound, the number of mitotic figures were counted and expressed as a percentage of the total number of cells. Three fields from each condition were evaluated and the mean and SEM were calculated and plotted as a function of drug concentration (FIG. 2).

One may read the EC50 as the midpoint of the concentration-response curve. As to `Cc1c(C(=O)NN=Cc2ccc([N+](=O)[O-])cc2)[nH]c2ccc(Cl)cc12` [Compound A, 5-chloro-3-methyl-indole-2-carboxylic acid (4-nitrobenzylidene)-hydrazide], the “Caspase activity Ratio (net RFU of test compound to control)” value worked out at 6.9 in experiment [1] (3 h substrate reading) and 7.0 in experiment [2] (3 h substrate reading). The EC50 in experiment [1] (Homo sapiens, T47D) is 2000 nM; in experiment [2] (Homo sapiens), 532 nM; in experiment [4], approximately 800 nM. In addition, the GI50 in experiment [3] was 2000 nM.
